Measured values as given in patent US20190084968A1, “FUMAGILLOL HETEROCYCLIC COMPOUNDS AND METHODS OF MAKING AND USING SAME” (Zafgen, Inc., priority 2015, published 2019).
Values joined by “and” are separate entries in the source; they are usually repeats but may differ in a detail not shown here. Identical values can stand only once. Counter-ions that a name gives are not always drawn.

Experiments:
[1] = system: embryo/fetal development in pregnant Sprague Dawley rats; settings: 6 mpk subcutaneously once every three days, Gestation Days 6-18, pregnant rats
Description: The objective of this study design was to evaluate the potential effects of disclosed compounds on embryo/fetal development when given subcutaneously to pregnant rats once every three days during the critical period of organogenesis (Gestation Days 6-18). Female, Sprague Dawley rats, approximately 10 weeks of age, time bred, were ordered from a certified vendor and housed individually housed in stainless steel cages suspended over flush pans, on a 12-hour light-dark cycle (0700-1900) at 20-26° C. and 30-70% humidity. Rats were fed a standard rodent chow and provided water ad libitum. Rats were received and housed in the facility for a period of approximately 1 to 2 days.
Compounds were formulated using 100% DMSO mixed in Sterile Water for Injection, resulting in 2% DMSO solution in water. If necessary, due to limited solubility of a test article, a higher percentage of DMSO solution in water was used. Groups of 8 mated and presumed pregnant female rats were given subcutaneous doses of vehicle or test article, once every three days, beginning on Gestation Day 6 and ending on Gestation Day 18 (Days 6, 9, 12, 15, and 18), maintained two more days, and then euthanized and necropsied on Gestation Day 20. Body weights was recorded for all animals on Gestation Days 5 (purpose of randomization), 6, 9, 12, 15, 18, and 20 (scheduled euthanasia). Food consumption by weight was recorded on Gestation Days 6, 9, 12, 15, 18, and 20 (scheduled termination).
At necropsy, the dams were examined visually for external abnormalities including palpable masses. The abdominal, thoracic, and cranial cavities and their contents were examined for abnormalities and findings will be recorded. The reproductive tract were examined to record the number of ovarian corpora lutea, the number and location of uterine implantation sites noting the position of the cervix, and the number of early resorptions, late resorptions, live fetuses, and dead fetuses. For dead fetuses and late resorptions, crown-to-rump length and weight were recorded, if possible, and the fetus was discarded. For viable fetuses, weight, sex, and grossly visible external abnormalities were recorded.

[2] = system: Diet Induced Obese (DIO) C57BL/6 mice; assay: 10 day DIO mouse model (body weight, food intake, hematology, blood chemistry); type: in vivo
Text: The objective of this study design was to investigate the efficacy of disclosed compounds in a 10 day DIO mouse model. Effects on body weight, food intake, hematology and blood chemistry were the primary readouts of this study design. […] Mice were fed Research Diets D12492 (60% Kcal fat, 20% Kcal carbohydrate and 20% protein) and provided water ad libitum. DIO mice were received and housed in the facility for approximately two weeks prior to the start of test article administration. On Day −4 or −3, mice were randomized into study groups based on body weight and body weights were continued to be recorded daily for the duration of the study. Daily food intake was assessed starting on Study Day −2 by weighing of the food with hopper together to avoid loss of food in transfer.
(§1) Compounds were formulated into a 100% DMSO stock (at 9 mg/mL) prior to the start, and further diluted into the target working concentration using the vehicle of 10% DMSO in water. Prior to test article administration, starting on Day −3 a dosing acclimation occured with all animals receiving a subcutaneous injection of vehicle (10% DMSO) only for 3 days. Starting on Day 1, test compounds or vehicle were administered based on individual body weight, subcutaneously, once a day for 10 days. All mice were sacrificed on Day 11, 24 hours following the final dosing on Day 10. After sacrifice, whole blood was collected and analyzed for hematology and blood chemistry parameters.
(§2) Compounds were tested vs. vehicle at various doses (1.0, 0.5, 0.3, 0.1, 0.03 mpk sc (mg per kg animal weight delivered subcutaneously), and the results are shown in Table 2 below.

[3] = system: Sprague Dawley rats on high fat diet (DIO); assay: 11 day rat DIO model (body weight, food intake, hematology, blood chemistry); type: in vivo
Text: The objective of this study design is to investigate the efficacy of disclosed compounds in an 11 day rat DIO model used to screen compounds for pharmacologic efficacy on endpoints related to obesity and metabolism. Effects on body weight, food intake, hematology and blood chemistries were the primary readouts of this study design. […] Rats were fed Research Diets D12451 (45% High Fat) and provided water ad libitum. Rats were received and housed in the facility for at least two or three weeks prior to start of test article administration. On Day −4 or −3, rats were randomized into study groups based on body weight and body weights were continued to be recorded daily for the duration of the study. Daily food intake was assessed starting on Study Day −2 by weighing the hopper including the food to avoid loss of food in transfer.
as §1, with “for 11” for “for 10”, “All animals” for “All mice”, “11, approximately 2” for “11, 24”, “Day 11.” for “Day 10.”
as §2

| Structure (SMILES) | Rat Embryofetal @6 mpk [1] | further results |
| --- | --- | --- |
| CO[C@@H]1[C@H](OC(=O)N2CC(CCN3CCOCC3)C2)CC[C@]2(CO2)[C@H]1[C@@]1(C)O[C@@H]1CC=C(C)C [Example 1, (3R,4S,5S,6R)-5-methoxy-4-((2R,3R)-2-methyl-3-(3-methylbut-2-en-1-yl)oxiran-2-yl)-1-oxaspiro[2.5]octan-6-yl 3-(2-morpholinoethyl)azetidine-1-carboxylate] | Negative |  |
| CO[C@@H]1[C@H](OC(=O)N2CC(CCN3CC(F)(F)C3)C2)CC[C@]2(CO2)[C@H]1[C@@]1(C)O[C@@H]1CC=C(C)C [Example 2, (3R,4S,5S,6R)-5-methoxy-4-((2R,3R)-2-methyl-3-(3-methylbut-2-enyl)oxiran-2-yl)-1-oxaspiro[2.5]octan-6-yl 3-(2-(3,3-difluoroazetidin-1-yl)ethyl)azetidine-1-carboxylate] | Negative |  |
| CO[C@@H]1[C@H](OC(=O)N2CC(CCN3CCC(O)CC3)C2)CC[C@]2(CO2)[C@H]1[C@@]1(C)O[C@@H]1CC=C(C)C [Example 7, (3R,4S,5S,6R)-5-methoxy-4-((2R,3R)-2-methyl-3-(3-methylbut-2-en-1-yl)oxiran-2-yl)-1-oxaspiro[2.5]octan-6-yl 3-(2-(4-hydroxypiperidin-1-yl)ethyl)azetidine-1-carboxylate] |  | DIO Mouse 10-day weight loss vs vehicle at indicated dose ([2]; DIO mouse, 0.3 mpk sc, once a day for 10 days): 1.8% |
| CO[C@@H]1[C@H](OC(=O)N2CC(CCN3CC4CCC(C3)O4)C2)CC[C@]2(CO2)[C@H]1[C@@]1(C)O[C@@H]1CC=C(C)C [Example 33, (4S,5S,6R)-5-methoxy-4-((2R,3R)-2-methyl-3-(3-methylbut-2-enyl)oxiran-2-yl)-1-oxaspiro[2.5]octan-6-yl 3-(2-(8-oxa-3-azabicyclo[3.2.1]octan-3-yl)ethyl)azetidine-1-carboxylate] |  | percent body weight loss vs vehicle at 0.3 mg/kg ([2]; 240 h, DIO mouse, 0.3 mpk sc, once a day for 10 days, read-out: DIO Mouse 10-day weight loss vs vehicle at indicated dose): 15.9% |
| CNC(=O)OC1CN(C(=O)O[C@@H]2CC[C@]3(CO3)[C@@H]([C@@]3(C)O[C@@H]3CC=C(C)C)[C@@H]2OC)C1 [Example 74, (3R,4S,5S,6R)-5-methoxy-4-((2R,3R)-2-methyl-3-(3-methylbut-2-enyl)oxiran-2-yl)-1-oxaspiro[2.5]octan-6-yl 3-(methylcarbamoyloxy)azetidine-1-carboxylate] | Negative |  |
| CO[C@@H]1[C@H](OC(=O)N2CC(OC(=O)N3CCN(C)CC3)C2)CC[C@]2(CO2)[C@H]1[C@@]1(C)O[C@@H]1CC=C(C)C [Example 78, 1-(((3R,4S,5S,6R)-5-methoxy-4-((2R,3R)-2-methyl-3-(3-methylbut-2-enyl)oxiran-2-yl)-1-oxaspiro[2.5]octan-6-yloxy)carbonyl)azetidin-3-yl 4-methylpiperazine-1-carboxylate] | Positive |  |
| CO[C@@H]1[C@H](OC(=O)N2CC(OC(=O)N3CCN(CC(F)(F)F)CC3)C2)CC[C@]2(CO2)[C@H]1[C@@]1(C)O[C@@H]1CC=C(C)C [Example 81, 1-(((3R,4S,5S,6R)-5-methoxy-4-((2R,3R)-2-methyl-3-(3-methylbut-2-enyl)oxiran-2-yl)-1-oxaspiro[2.5]octan-6-yloxy)carbonyl)azetidin-3-yl 4-(2,2,2-trifluoroethyl)piperazine-1-carboxylate] | Positive |  |
| CCN(CC)CCNC(=O)CCC1CN(C(=O)O[C@@H]2CC[C@]3(CO3)[C@@H]([C@@]3(C)O[C@@H]3CC=C(C)C)[C@@H]2OC)C1 [Example 88, (3R,4S,5S,6R)-5-methoxy-4-((2R,3R)-2-methyl-3-(3-methylbut-2-enyl)oxiran-2-yl)-1-oxaspiro[2.5]octan-6-yl 3-(3-(2-(diethylamino)ethylamino)-3-oxopropyl)azetidine-1-carboxylate formate] | Positive | DIO Mouse 10-day weight loss vs vehicle at indicated dose ([2]; mouse, in vivo, sc, 0.3 mg/kg): 9%; DIO Rat 11-day weight loss vs vehicle at indicated dose ([3]; rat, in vivo, sc, 0.3 mg/kg): 4.4% |
| CO[C@@H]1[C@H](OC(=O)N2CC(Cc3ccc(C)nc3)C2)CC[C@]2(CO2)[C@H]1[C@@]1(C)O[C@@H]1CC=C(C)C [Example 101, (3R,4S,5S,6R)-5-methoxy-4-((2R,3R)-2-methyl-3-(3-methylbut-2-enyl)oxiran-2-yl)-1-oxaspiro[2.5]octan-6-yl 3-((6-methylpyridin-3-yl)methyl)azetidine-1-carboxylate] | Positive |  |
| CCN(CC)CCC1CN(C(=O)O[C@@H]2CC[C@]3(CO3)[C@@H]([C@@]3(C)O[C@@H]3CC=C(C)C)[C@@H]2OC)C1 [Example 103, (3R,4S,5S,6R)-5-methoxy-4-((2R,3R)-2-methyl-3-(3-methylbut-2-enyl)oxiran-2-yl)-1-oxaspiro[2.5]octan-6-yl 3-(2-(diethylamino)ethyl)azetidine-1-carboxylate] | Positive |  |
| CCN(CC)CCCC1CN(C(=O)O[C@@H]2CC[C@]3(CO3)[C@@H]([C@@]3(C)O[C@@H]3CC=C(C)C)[C@@H]2OC)C1 [Example 104, (3R,4S,5S,6R)-5-methoxy-4-((2R,3R)-2-methyl-3-(3-methylbut-2-enyl)oxiran-2-yl)-1-oxaspiro[2.5]octan-6-yl 3-(3-(diethylamino)propyl)azetidine-1-carboxylate] | Positive |  |
| CCN(CC)CCC1CCN1C(=O)O[C@@H]1CC[C@]2(CO2)[C@@H]([C@@]2(C)O[C@@H]2CC=C(C)C)[C@@H]1OC (stereo partly drawn) [Example 106, (3R,4S,5S,6R)-5-methoxy-4-((2R,3R)-2-methyl-3-(3-methylbut-2-enyl)oxiran-2-yl)-1-oxaspiro[2.5]octan-6-yl 2-(2-(diethylamino)ethyl)azetidine-1-carboxylate] |  | DIO Mouse 10-day weight loss vs vehicle at indicated dose ([2]; DIO mouse, 0.1 mpk sc, once a day for 10 days): 2%; DIO Mouse 10-day weight loss vs vehicle at indicated dose ([2]; DIO mouse, 0.3 mpk sc, once a day for 10 days, 0.3 mg/kg): 10.8% and 0.8%; DIO Rat 11-day weight loss vs vehicle at indicated dose ([3]; DIO rat, 0.5 mpk sc, once a day for 11 days): 4.82% |
| CO[C@@H]1[C@H](OC(=O)/C=C/c2ccc(OCCN(C)C)cc2)CC[C@]2(CO2)[C@H]1[C@@]1(C)O[C@@H]1CC=C(C)C [compound A, [(3R,6R,7S,8S)-7-methoxy-8-[(2R,3R)-2-methyl-3-(3-methylbut-2-enyl)oxiran-2-yl]-2-oxaspiro[2.5]octan-6-yl] (E)-3-[4-[2-(dimethylamino)ethoxy]phenyl]prop-2-enoate, reference compound] | Positive |  |
